According to ChEMBL document CHEMBL4831557, “Parthenolide Derivatives as PKM2 Activators Showing Potential in Colorectal Cancer” (J Med Chem, 2021):
The source made the active and inactive calls. The calls are words filed in the database; no cut-off is given here.

Experiments:
[1] = tested on: A549; test: cells; settings: Homo sapiens, A549, 48 h
[2] = tested on: HT-29; test: Induction of apoptosis in human HT-29 cells assessed as increase in cleaved PARP expression at 0.45 to 1.8 uM after 48 hrs by Western blotting analysis; format: functional, cell-based; settings: dose 0.45-1.8 µM
[3] = target: T1, Pyruvate kinase PKM (Homo sapiens, UniProt P14618); test: Binding affinity to recombinant human PKM2 assessed as covalent adduct formation incubated for 1 hr by LC-MS/MS analysis; settings: filed as activator
Target sequence in this assay (P14618 2-531 limits assumed): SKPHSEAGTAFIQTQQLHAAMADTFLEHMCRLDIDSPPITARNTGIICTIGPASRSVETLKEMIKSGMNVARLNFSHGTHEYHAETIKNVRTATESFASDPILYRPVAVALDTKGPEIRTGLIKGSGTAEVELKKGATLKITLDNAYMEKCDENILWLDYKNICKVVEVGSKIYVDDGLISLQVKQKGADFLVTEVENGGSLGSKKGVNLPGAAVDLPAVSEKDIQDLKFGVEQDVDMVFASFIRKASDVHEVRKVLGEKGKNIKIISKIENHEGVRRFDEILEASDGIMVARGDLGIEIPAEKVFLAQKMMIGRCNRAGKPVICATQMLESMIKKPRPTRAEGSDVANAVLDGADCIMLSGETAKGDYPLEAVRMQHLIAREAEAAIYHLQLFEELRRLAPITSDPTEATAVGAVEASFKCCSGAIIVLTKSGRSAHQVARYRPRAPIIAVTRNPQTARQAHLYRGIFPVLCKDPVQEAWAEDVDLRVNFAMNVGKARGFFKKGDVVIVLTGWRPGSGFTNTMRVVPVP

[4] = target: T1, Pyruvate kinase PKM; test: Activation of PKM2 in human HT-29 cells assessed as decrease in lactic acid production; format: cell-based; settings: filed as activator
Target sequence in this assay (P14618 2-531 limits assumed): as above

[5] = tested on: SW480; test: Induction of intracellular ROS production in human SW480 cells at 0.2 to 0.6 uM incubated for 48 hrs by DCFH-DA staining based flow cytometry analysis; format: functional, cell-based; settings: dose 0.2-0.6 µM
[6] = tested on: HT-29; test: Inhibition of colony formation in human HT-29 cells incubated for 14 days by crystal violet staining based analysis; format: functional, cell-based; settings: dose 0.15-0.3 µM, time 14.0 day
[7] = tested on: NCM460; test: Cytotoxicity against human NCM460 cells assessed as reduction in cell viability incubated for 48 hrs by MTT assay; format: cell-based; settings: NCM460, 48 h
[8] = target: T1, Pyruvate kinase PKM; test: Inhibition of PKM2/STAT3 in human HT-29 cells assessed as decrease in phosphorylated STAT3 level at 0.45 to 1.8 uM after 48 hrs by Western blot analysis; format: cell-based; settings: dose 0.45-1.8 µM
Target sequence in this assay (P14618 2-531 limits assumed): as above

[9] = tested on: SW480; test: Antiproliferative activity against human SW480 cells at 0.1 to 0.4 uM measured after 48 hrs by EdU staining based confocal microscopic analysis; format: functional, cell-based; settings: dose 0.1-0.4 µM
[10] = target: T1, Pyruvate kinase PKM; test: Inhibition of PKM2/STAT3 in human HT-29 cells assessed as decrease in total STAT3 level at 0.45 to 1.8 uM after 48 hrs by Western blot analysis; format: cell-based; settings: dose 0.45-1.8 µM
Target sequence in this assay (P14618 2-531 limits assumed): as above

[11] = target: T1, Pyruvate kinase PKM; test: Activation of recombinant human PKM2 incubated 30 mins by fluorescence microplate reader analysis
Target sequence in this assay (P14618 whole entry): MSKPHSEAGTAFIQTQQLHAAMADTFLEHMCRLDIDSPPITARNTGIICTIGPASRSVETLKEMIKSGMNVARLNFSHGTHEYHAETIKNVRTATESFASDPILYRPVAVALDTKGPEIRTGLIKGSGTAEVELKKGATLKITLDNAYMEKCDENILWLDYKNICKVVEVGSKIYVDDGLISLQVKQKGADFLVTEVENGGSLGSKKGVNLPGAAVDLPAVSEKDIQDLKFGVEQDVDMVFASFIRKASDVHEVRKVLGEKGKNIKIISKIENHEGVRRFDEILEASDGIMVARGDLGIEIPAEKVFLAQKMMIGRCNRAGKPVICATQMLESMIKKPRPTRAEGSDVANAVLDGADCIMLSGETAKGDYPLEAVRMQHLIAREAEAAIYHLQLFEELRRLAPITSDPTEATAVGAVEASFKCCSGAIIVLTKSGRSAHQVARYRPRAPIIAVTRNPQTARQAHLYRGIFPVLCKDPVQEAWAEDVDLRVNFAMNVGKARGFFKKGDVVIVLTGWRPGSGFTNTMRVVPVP

[12] = target: T1, Pyruvate kinase PKM; test: Inhibition of PKM2/STAT3 in human HT-29 cells assessed as reduction in cyclin-D1 protein expression at 0.45 to 1.8 uM incubated for 48 hrs by Western blot analysis; format: cell-based; settings: dose 0.45-1.8 µM
Target sequence in this assay (P14618 2-531 limits assumed): as the sequence (P14618 2-531 limits assumed) above

IC50 [1]: 1670 nM | Activity [3]: Active | Activity [4]: Active | inhibition [8]: Active | inhibition [10]: Active | AC50 [11]: 86.3 nM | inhibition [12]: Active
SMILES: C=C1C(=O)O[C@H]2[C@H]1CC/C(COC(=O)c1ccc3nccc(Br)c3c1)=C/CC[C@@]1(C)O[C@@H]21
Activity [2]: Active | Activity [5]: Active | inhibition [6]: Dose-Dependent Effect | IC50 [7]: 2020 nM | Activity [9]: Active
